According to article PMC10786919, “Design-rules for stapled peptides with in vivo activity and their application to Mdm2/X antagonists” (Nature Communications, 2024):
Positions of bridges follow the written chain, without caps; N, C: chain ends. Non-standard residues stand in square brackets, D forms with d. Residues, ends and D or L forms follow the SMILES beside them. 2Nal = N[C@@H](Cc1ccc2ccccc2c1)C(=O)O; tBuAla = CC(C)(C)C[C@H](N)C(=O)O; R8 = C=CCCCCCC[C@@](C)(N)C(=O)O; R5 = C=CCCC[C@@](C)(N)C(=O)O; S5 = C=CCCC[C@](C)(N)C(=O)O; Aib = CC(C)(N)C(=O)O; Ahx = NCCCCCC(=O)O

Legend:
Type in all cases: cell-based
[1] = Lactate dehydrogenase (LDH) release assay; conditions: LDH: Cytotoxicity assay EC50
Method in brief: (§1)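 Geometric means of at least three independent biological runs are given for LDH release measured in HCT116 cells stably expressing a p53-driven β-lactamase reporter. Plating density was 8000 cells/well; DMSO in wells was 0.5%.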

[2] = test system: HCT116 cells; assay: Lactate dehydrogenase (LDH) release assay
Method in brief: as §1

[3] = test system: p53 responsive β-lactamase reporter in HCT116 cells; assay: cells; conditions: 0% FBS 4Hr; read-out: p53 reporter assay EC50
Method in brief: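 HCT116 cells stably carrying a p53-responsive β-lactamase reporter, seeded at 8000 cells/well, with 0.5% DMSO final. Reporter activity read by ToxBLAzer Dual Screen. Values are geometric means of at least three biological replicates.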

[4] = test system: Jump-In T-REx CHO-K1 BLA cells; assay: cells; conditions: 0% FBS 4Hr; for EC50: read-out: TETCHO: Counterscreen EC50
Method: This assay was based on Jump-In™ T-REx™ CHO-K1 BLA cells containing a stably integrated β-lactamase under the control of an inducible cytomegalovirus (CMV) promoter. Cells were maintained in Dulbecco’s […] Eagle Medium (DMEM) with 10% fetal bovine serum (FBS), Blasticidin, and Penicillin/Streptomycin and then transferred to 1.5 ml freezing vials and stored under liquid nitrogen in growth media containing 5% DMSO. […] Cells were seeded into a 384-well plate at a density of 4000 cells per well. Peptides were then dispensed to each well using a liquid handler, ECHO 555 and incubated for 16 h. The final working concentration of DMSO was 0.5%. β-lactamase activity was detected using the ToxBLAzer Dual Screen (Invitrogen), as per the manufacturer’s instructions. Measurements were carried out using the Envision multiplate reader (Perkin–Elmer). Counterscreen activity was defined as the amount of β-lactamase activity induced by tetracycline. Measurements were taken a minimum of three times (biological replicates) and values are reported as geometric means of the replicates.

Compound	EC50 [1] [µM]	LDH: Cytotoxicity assay % Effect [2] [%]	EC50 [3] [µM]	TETCHO: Counterscreen % Effect [4] [%]	EC50 [4] [µM]
CC(=O)N[C@H](C(=O)N[C@@H](CO)C(=O)N[C@@H](Cc1ccccc1)C(=O)NC(C)(C)C(=O)N[C@@H](CCC(=O)O)C(=O)N[C@@H](Cc1ccc(O)cc1)C(=O)N[C@@H](Cc1c[nH]c2ccccc12)C(=O)N[C@@H](C)C(=O)N[C@@H](CC(C)C)C(=O)N[C@@H](CC(C)(C)C)C(=O)NC(C)(C)C(N)=O)[C@@H](C)O [MP-155] (Ac-TSF[Aib]EYWAL[tBuAla][Aib]-NH2)	> 50	-0.2131	12.4	-0.6205	> 50
CC(=O)N[C@H](C(=O)N[C@@H](CO)C(=O)N[C@@H](Cc1ccccc1)C(=O)N[C@]1(C)CCCCCCC=CCCC[C@@](C)(C(=O)N[C@@H](CO)C(=O)N[C@@H](C)C(=O)N[C@@H](C)C(=O)N[C@@H](CCC(=O)O)C(N)=O)NC(=O)[C@H](CC(C)(C)C)NC(=O)[C@H](CC(C)C)NC(=O)[C@H](C)NC(=O)[C@H](Cc2c[nH]c3ccccc23)NC(=O)[C@H](Cc2ccc(O)cc2)NC(=O)[C@H](CCC(=O)O)NC1=O)[C@@H](C)O [MP-143] (Ac-TSF[R8]EYWAL[tBuAla][S5]SAAE-NH2; staple 4-11)	> 50	5.215	8.92	0.6237	> 50
CC(=O)N[C@H](C(=O)N[C@@H](CO)C(=O)N[C@@H](Cc1ccccc1)C(=O)N[C@]1(C)CCCC=CCCC[C@](C)(C(=O)N[C@@H](CC(C)C)C(=O)N[C@@H](CC(C)C)C(=O)N[C@@H](CO)C(=O)N[C@@H](CCC(=O)O)C(=O)N[C@@H](CC(N)=O)C(=O)N[C@@H](Cc2ccccc2)C(N)=O)NC(=O)[C@H](Cc2c[nH]c3ccccc23)NC(=O)[C@H](Cc2ccc(O)cc2)NC(=O)[C@H](CCC(=O)O)NC1=O)[C@@H](C)O [MP-167] (Ac-TSF[R5]EYW[R5]LLSENF-NH2; staple 4-8)	26	34.73	8.78	22.82	12.1
CC(=O)N[C@@H](CCCNC(=N)N)C(=O)N[C@@H](CCCNC(=N)N)C(=O)N[C@@H](CCCNC(=N)N)C(=O)NCCCCCC(=O)N[C@H](C(=O)N[C@@H](CO)C(=O)N[C@@H](Cc1ccccc1)C(=O)N[C@]1(C)CCCCCCC=CCCC[C@@](C)(C(=O)N[C@@H](CCC(=O)O)C(=O)N[C@@H](CC(N)=O)C(=O)N[C@@H](Cc2ccc(O)cc2)C(N)=O)NC(=O)[C@H](CC(C)C)NC(=O)[C@H](CC(C)C)NC(=O)[C@H](C)NC(=O)[C@H](Cc2c[nH]c3ccccc23)NC(=O)[C@H](Cc2ccc(O)cc2)NC(=O)[C@H](CCC(=O)O)NC1=O)[C@@H](C)O [MP-012] (Ac-RRR[Ahx]TSF[R8]EYWALL[S5]ENY-NH2; staple 8-15)	> 50	36.73	34.2	23.79	> 50
CC(=O)N[C@@H](CCCCN)C(=O)N[C@@H](CCCCN)C(=O)NCCCCCC(=O)N[C@H](C(=O)N[C@@H](CO)C(=O)N[C@@H](Cc1ccccc1)C(=O)N[C@]1(C)CCCCCCC=CCCC[C@@](C)(C(=O)N[C@@H](CCC(=O)O)C(=O)N[C@@H](CC(N)=O)C(=O)N[C@@H](Cc2ccc(O)cc2)C(N)=O)NC(=O)[C@H](CC(C)C)NC(=O)[C@H](CC(C)C)NC(=O)[C@H](C)NC(=O)[C@H](Cc2c[nH]c3ccccc23)NC(=O)[C@H](Cc2ccc(O)cc2)NC(=O)[C@H](CCC(=O)O)NC1=O)[C@@H](C)O [MP-013] (Ac-KK[Ahx]TSF[R8]EYWALL[S5]ENY-NH2; staple 7-14)	> 50	-1.001	8.65	11.6	> 50
CC(=O)N[C@H](C(=O)N[C@@H](CO)C(=O)N[C@@H](Cc1ccccc1)C(=O)N[C@]1(C)CCCCCCC=CCCC[C@@](C)(C(N)=O)NC(=O)[C@H](CC(C)(C)C)NC(=O)[C@H](CC(C)C)NC(=O)[C@H](C)NC(=O)[C@H](Cc2c[nH]c3ccccc23)NC(=O)[C@H](Cc2ccc(O)cc2)NC(=O)[C@H](CCC(=O)O)NC1=O)[C@@H](C)O [MP-149] (Ac-TSF[R8]EYWAL[tBuAla][S5]-NH2; staple 4-11)	28.3	42.59	12.6	20.68	> 50
CC(=O)N[C@H](C(=O)N[C@@H](CO)C(=O)N[C@@H](Cc1ccc2ccccc2c1)C(=O)NC(C)(C)C(=O)N[C@@H](CCC(=O)O)C(=O)N[C@@H](Cc1ccc(O)cc1)C(=O)N[C@@H](Cc1c[nH]c2ccccc12)C(=O)N[C@@H](C)C(=O)N[C@@H](CC(C)C)C(=O)N[C@@H](CC(C)C)C(=O)NC(C)(C)C(N)=O)[C@@H](C)O [MP-161] (Ac-TS[2Nal][Aib]EYWALL[Aib]-NH2)	> 50	-0.5798	6.65	26.11	19.4
CC(=O)N[C@@H](CCCCN)C(=O)N[C@@H](CCCCN)C(=O)N[C@H](C(=O)N[C@@H](CO)C(=O)N[C@@H](Cc1ccccc1)C(=O)N[C@]1(C)CCCCCCC=CCCC[C@@](C)(C(=O)N[C@@H](CCC(=O)O)C(N)=O)NC(=O)[C@H](CC(C)(C)C)NC(=O)[C@H](CC(C)C)NC(=O)[C@H](C)NC(=O)[C@H](Cc2c[nH]c3ccccc23)NC(=O)[C@H](Cc2ccc(O)cc2)NC(=O)[C@H](CCC(=O)O)NC1=O)[C@@H](C)O [MP-1159] (Ac-KKTSF[R8]EYWAL[tBuAla][S5]E-NH2; staple 6-13)	> 50	-1.606	5.08	44.44	49.2
CC(=O)N[C@H](C(=O)N[C@@H](CO)C(=O)N[C@@H](Cc1ccccc1)C(=O)N[C@]1(C)CCCC=CCCC[C@](C)(C(=O)N[C@@H](CC(C)C)C(=O)N[C@@H](CC(C)C)C(=O)N2CCC[C@H]2C(=O)N[C@@H](CCC(N)=O)C(=O)N[C@@H](CC(N)=O)C(=O)N[C@@H](Cc2ccccc2)C(N)=O)NC(=O)[C@H](Cc2c[nH]c3ccccc23)NC(=O)[C@H](Cc2ccc(O)cc2)NC(=O)[C@H](CCC(=O)O)NC1=O)[C@@H](C)O [MP-1173] (Ac-TSF[R5]EYW[R5]LLPQNF-NH2; staple 4-8)	> 50	16.65	12.5	47.5	28.3
CC(=O)N[C@H](C(=O)N[C@@H](CO)C(=O)N[C@@H](Cc1ccccc1)C(=O)N[C@]1(C)CCCCCCC=CCCC[C@@](C)(C(=O)N[C@@H](CCC(=O)O)C(=O)N[C@@H](CC(N)=O)C(=O)N[C@@H](Cc2ccc(O)cc2)C(N)=O)NC(=O)[C@H](CC(C)C)NC(=O)[C@H](CC(C)C)NC(=O)[C@H](C)NC(=O)[C@H](Cc2c[nH]c3ccccc23)NC(=O)[C@H](Cc2ccc(O)cc2)NC(=O)[C@H](CCC(=O)O)NC1=O)[C@@H](C)O [MP-1170]	> 50	6.762	16.7	61.75	36.8
CC(=O)N[C@@H](Cc1c[nH]cn1)C(=O)N[C@@H](Cc1c[nH]cn1)C(=O)N[C@@H](Cc1c[nH]cn1)C(=O)NCCCCCC(=O)N[C@H](C(=O)N[C@@H](CO)C(=O)N[C@@H](Cc1ccccc1)C(=O)N[C@]1(C)CCCCCCC=CCCC[C@@](C)(C(N)=O)NC(=O)[C@H](CC(C)C)NC(=O)[C@H](CC(C)C)NC(=O)[C@H](C)NC(=O)[C@H](Cc2c[nH]c3ccccc23)NC(=O)[C@H](Cc2ccc(O)cc2)NC(=O)[C@H](CCC(=O)O)NC1=O)[C@@H](C)O [MP-008]	28.5	42.18	17.9	75.71	> 50
CC(=O)N[C@@H](CCCNC(=N)N)C(=O)N[C@@H](CCCNC(=N)N)C(=O)N[C@@H](CCCNC(=N)N)C(=O)NCCCCCC(=O)N[C@H](C(=O)N[C@@H](CO)C(=O)N[C@@H](Cc1ccccc1)C(=O)N[C@]1(C)CCCCCCC=CCCC[C@@](C)(C(N)=O)NC(=O)[C@H](CC(C)C)NC(=O)[C@H](CC(C)C)NC(=O)[C@H](C)NC(=O)[C@H](Cc2c[nH]c3ccccc23)NC(=O)[C@H](Cc2ccc(O)cc2)NC(=O)[C@H](CCC(=O)O)NC1=O)[C@@H](C)O [MP-1177]	31.8	51.96	8.42	50.69	17.6
CC(=O)N[C@H](C(=O)N[C@@H](CO)C(=O)N[C@@H](Cc1ccccc1)C(=O)N[C@]1(C)CCCCCCC=CCCC[C@@](C)(C(N)=O)NC(=O)[C@H](CC(C)C)NC(=O)[C@H](CC(C)C)NC(=O)[C@H](C)NC(=O)[C@H](Cc2c[nH]c3ccccc23)NC(=O)[C@H](Cc2ccc(O)cc2)NC(=O)[C@H](CCC(N)=O)NC1=O)[C@@H](C)O [MP-163] (Ac-TSF[R8]QYWALL[S5]-NH2; staple 4-11)	> 50	6.049	11.5	21.33	> 50
